In article PMC10033419, “Blocking NS3–NS4B interaction inhibits dengue virus in non-human primates” (Nature, 2023):
Where “and” joins values, the source holds several entries; their conditions need not be identical. Identical values can stand only once. Like-named read-outs stand apart in the source and are kept apart here.

Columns and labels:
[1] = test system: DENV-2 RL strain; experiment: Survival study, lethal DENV challenge with 4G2 antibody; type: in vivo, AG129 mice
[2] = Plasma protein binding; type: in vitro ADME; conditions: rhesus monkey, rhesus macaques
[3] = test system: DENV-2/16681; experiment: NHP DENV-2 study, anti-DENV IgG ELISA; design: species or system rhesus macaques (M. mulatta); conditions: rhesus monkey, in vivo
[4] = test system: DENV-2 RL strain; experiment: Antiviral assay, viral RNA RT-qPCR, C6/36 cells; type: cell-based
[5] = test system: DENV-2/16681; experiment: NHP DENV-2 study, anti-DENV IgM ELISA; design: species or system rhesus macaques (M. mulatta); conditions: rhesus monkey, in vivo
[6] = Pharmacokinetics in mice, i.v. and oral; type: in vivo, CD-1 mice; conditions: for bioavailability: po
Procedure: The housing conditions and experimental procedures were approved by the ethics committee on animal experiments of Janssen Pharmaceutica NV (license number LA1100119). Janssen Pharmaceutica NV has full AAALAC accreditation. […] The blood samples were immediately centrifuged at 4 °C and the plasma was stored at −20 °C. Compound concentrations in the plasma samples were determined using the API 5500 LC–MS/MS system mass spectrometer (Applied Biosystems). […] (Certara).

[7] = male, CD-1, plasma, mouse oral 1 mg/kg
[8] = male, CD-1, plasma, mouse oral 10 mg/kg
[9] = male, CD-1, plasma, mouse oral 30 mg/kg
[10] = mouse i.v. 2.5 mg/kg, 2.5 mg/kg

Structure (SMILES): COc1cc(N[C@H](C(=O)c2c[nH]c3ccc(OC(F)(F)F)cc23)c2ccc(Cl)cc2OC)cc(S(C)(=O)=O)c1 [JNJ-1802]
- % Survival ([1]; 802R_3, BID, d p.i. 18): 100%
- % Survival ([1]; 802R_3, BID, d p.i. 19): 100%
- % Survival ([1]; 802R_3, BID, d p.i. 20): 100%
- % Survival ([1]; 802R_3, BID, d p.i. 21): 100%
- % Survival ([1]; 802R_3, BID, d p.i. 22): 90%
- % Survival ([1]; 802R_3, BID, d p.i. 23): 90%
- % Survival ([1]; 802R_3, BID, d p.i. 24): 80%
- % Survival ([1]; 802R_3, BID, d p.i. 25 = end of study): 80%
- % Survival ([1]; 802R_10, BID, d p.i. 0): 100%
- % Survival ([1]; 802R_10, BID, d p.i. 1): 100%
- % Survival ([1]; 802R_10, BID, d p.i. 2): 100%
- % Survival ([1]; 802R_10, BID, d p.i. 4): 100%
- % Survival ([1]; 802R_10, BID, d p.i. 5): 100%
- % Survival ([1]; 802R_10, BID, d p.i. 6): 100%
- % Survival ([1]; 802R_10, BID, d p.i. 7): 100%
- % Survival ([1]; 802R_10, BID, d p.i. 8): 100%
- % Survival ([1]; 802R_10, BID, d p.i. 9): 100%
- % Survival ([1]; 802R_10, BID, d p.i. 10): 100%
- % Survival ([1]; 802R_10, BID, d p.i. 11): 100%
- % Survival ([1]; 802R_10, BID, d p.i. 12): 100%
- % Survival ([1]; 802R_10, BID, d p.i. 13): 100%
- % Survival ([1]; 802R_10, BID, d p.i. 14): 100%
- % Survival ([1]; 802R_10, BID, d p.i. 15): 80%
- % Survival ([1]; 802R_10, BID, d p.i. 16): 80%
- % Survival ([1]; 802R_10, BID, d p.i. 17): 80%
- % Survival ([1]; 802R_10, BID, d p.i. 18): 80%
- % Survival ([1]; 802R_10, BID, d p.i. 19): 80%
- % Survival ([1]; 802R_10, BID, d p.i. 20): 80%
- % Survival ([1]; 802R_10, BID, d p.i. 21): 80%
- % Survival ([1]; 802R_10, BID, d p.i. 22): 80%
- % Survival ([1]; 802R_10, BID, d p.i. 23): 80%
- % Survival ([1]; 802R_10, BID, d p.i. 24): 80%
- % Survival ([1]; 802R_10, BID, d p.i. 25 = end of study): 80%
- fraction unbound [2]: < 0.001
- IgG seroconversion [3]: observed at later timepoints
- animals with detectable anti-DENV IgG [3]: none of the animals
- EC50 ([4]; C3/36 cells, DENV-2RL, EXP 1 and EXP 2, read-out: EC50, individual values): 1.34 nM and 1.19 nM and 1.38 nM
- EC90 ([4]; C3/36 cells, DENV-2RL, EXP 1 and EXP 2, read-out: EC90, individual values): 7.33 nM and 7.51 nM and 5.46 nM
- EC50 ([4]; Dengue virus, DENV2, C6/36, C3/36 cells, DENV-2RL, EXP 1 and EXP 2, read-out: EC50, individual values): 1.05 nM
- EC90 ([4]; Dengue virus, DENV2, C6/36, C3/36 cells, DENV-2RL, EXP 1 and EXP 2, read-out: EC90, individual values): 5.52 nM
- EC50 ([4]; Dengue virus, DENV2, C6/36, C3/36 cells, DENV-2RL, mean, read-out: EC50 Mean): 1.2 nM
- EC90 ([4]; Dengue virus, DENV2, C6/36, C3/36 cells, DENV-2RL, mean, read-out: EC90 Mean): 6.46 nM
- EC50 ([4]; Dengue virus, DENV2, C6/36, C6/36, read-out: EC50): 1.24 ± 0.14 nM
- EC90 ([4]; Dengue virus, DENV2, C6/36, C6/36, read-out: EC90): 6.5 ± 1 nM
- IgG and IgM seroconversion [5]: occurred in all of the animals
- IgM seroconversion [5]: occurred at later timepoints
- animals with detectable anti-DENV IgM [5]: one out of three
- clearance ([6]; male, CD-1, in vivo, iv, mouse i.v. 2.5 mg/kg, read-out: CLp): 4.97 ± 1.26 mL/min/kg
- Cmax ([6]; male, CD-1, in vivo, mouse oral 3 mg/kg): 501 ± 149 ng/mL
- half-life ([6]; male, CD-1, mouse, plasma, iv, 2.5 mg/kg, mouse i.v. 2.5 mg/kg): 6.2 h
- bioavailability ([6]; male, CD-1, mouse, plasma, 1 mg/kg, mouse oral 1 mg/kg): 46 ± 6%
- bioavailability ([6]; male, CD-1, mouse, plasma, 3 mg/kg, mouse oral 3 mg/kg): 59 ± 28%
- bioavailability ([6]; male, CD-1, mouse, plasma, 10 mg/kg, mouse oral 10 mg/kg): > 100%
- bioavailability ([6]; male, CD-1, mouse, plasma, 30 mg/kg, mouse oral 30 mg/kg): 121 ± 21%
- AUC(0-t) ([6]; male, CD-1, mouse, plasma, mice, single oral dose 1 to 30 mg per kg, read-out: AUC0–24h, range): 1520 to 120000 ng·h/mL
- AUC(0-inf) ([6]; male, CD-1, plasma, iv, mouse i.v. 2.5 mg/kg): 8820 ng·h/mL
- AUC(0-t) ([6]; male, CD-1, plasma, iv, mouse i.v. 2.5 mg/kg, read-out: AUC(0-24h)): 8240 ng·h/mL
- Cmax [6, 7]: 119 ± 26 ng/mL
- Tmax [6, 7]: 5 ± 1.7 h
- AUC(0-t) ([6]; male, CD-1, plasma, mouse oral 1 mg/kg, read-out: AUC(0-24h)): 1520 ng·h/mL
- Tmax ([6]; male, CD-1, plasma, mouse oral 3 mg/kg): 5 ± 1.7 h
- AUC(0-t) ([6]; male, CD-1, plasma, mouse oral 3 mg/kg, read-out: AUC(0-24h)): 5780 ng·h/mL
- Cmax [6, 8]: 2730 ng/mL
- Tmax [6, 8]: 7 h
- AUC(0-t) ([6]; male, CD-1, plasma, mouse oral 10 mg/kg, read-out: AUC(0-24h)): 35600 ng·h/mL
- Cmax [6, 9]: 7760 ng/mL
- Tmax [6, 9]: 6 ± 1.7 h
- AUC(0-t) ([6]; male, CD-1, plasma, mouse oral 30 mg/kg, read-out: AUC(0-24h)): 120000 ng·h/mL
- Vdssp [6, 10]: 2.51 ± 0.55 L/kg and 2.51 ± 0.553 L/kg
- t1/2 [6, 10]: 6.17 ± 0.23 h
- F ([6]; mouse oral 1 mg/kg, 1 mg/kg): 46.1+/-6.47%
- F ([6]; mouse oral 3 mg/kg, 3 mg/kg): 58.5+/-27.9%
